Results as given in patent US4643987A, “Modified glycopeptides” (Eli Lilly and Company, priority 1985, dated 1987).
Values after ≈ are worked out from the molar mass of the structure shown.

Tests used:
[1] = system: Staphylococcus aureus V41; experiment: agar-dilution MIC; assay type: cell-based
[2] = system: Staphylococcus aureus X400; experiment: agar-dilution MIC; assay type: cell-based
[3] = system: Streptococcus pneumoniae Park 1; assay type: cell-based; details: agar dilution
[4] = system: Staphylococcus aureus S13E; assay type: cell-based; details: agar dilution
[5] = system: Staphylococcus epidermidis 222; experiment: agar-dilution MIC; assay type: cell-based
[6] = system: Streptococcus pyrogenes C203; experiment: agar-dilution MIC; assay type: cell-based
[7] = system: Staphylococcus epidermidis EP11; experiment: agar-dilution MIC; assay type: cell-based
[8] = system: Staphylococcus aureus NRRL B313; experiment: agar-dilution MIC; assay type: cell-based
[9] = system: Haemophilus influenzae 76; experiment: agar-dilution MIC; assay type: cell-based
[10] = system: Streptococcus sp. group D 2041; experiment: agar-dilution MIC; assay type: cell-based
[11] = system: Streptococcus faecium ATCC 9790; experiment: agar-dilution MIC; assay type: cell-based
[12] = system: Streptococcus pneumoniae; experiment: experimental bacterial infection in mice, ED50; assay type: in vivo; details: two doses, subcutaneously
Experimental: (§1) Some of the compounds of this invention have also shown in vivo antimicrobial activity against experimental bacterial infections. When two doses of test compound were administered to mice in experimental infections, the activity observed was measured as an ED50 value [effective dose in mg/kg to protect 50% of the test animals: see Warren Wick, et al., J. Bacteriol. 81, 233-235 (1961)].

[13] = system: Streptococcus pyogenes; experiment: experimental bacterial infection in mice, ED50; assay type: in vivo; details: two doses, subcutaneously
Experimental: as §1

[14] = system: Staphylococcus aureus; experiment: experimental bacterial infection in mice, ED50; assay type: in vivo; details: two doses, subcutaneously
Experimental: as §1

[15] = system: Haemophilus influenzae C.L.; experiment: agar-dilution MIC; assay type: cell-based

| Compound | MIC [1] [µg/mL] | MIC [2] [µg/mL] | MIC [3] [µg/mL] | MIC [4] [µg/mL] | MIC [5] [µg/mL] | MIC [6] [µg/mL] | MIC [7] [µg/mL] | MIC [8] [µg/mL] | MIC [9] | MIC [10] [µg/mL] | MIC [11] [µg/mL] | ED50 [12] | ED50 [13] | ED50 [14] | MIC [15] |
| --- | --- | --- | --- | --- | --- | --- | --- | --- | --- | --- | --- | --- | --- | --- | --- |
| CN[C@H](CC(C)C)C(=O)N[C@H]1C(=O)N[C@@H](CC(N)=O)C(=O)N[C@H]2C(=O)N[C@H]3C(=O)N[C@H](C(=O)N[C@H](C(=O)O)c4cc(O)cc(O)c4-c4cc3ccc4O)[C@H](O)c3ccc(c(Cl)c3)Oc3cc2cc(c3O[C@@H]2O[C@H](CO)[C@@H](O)[C@H](O)[C@H]2O[C@H]2C[C@](C)(NC(=O)CC(C)c3cccs3)[C@H](O)[C@H](C)O2)Oc2ccc(cc2Cl)[C@H]1O (stereo partly drawn) [Compound 7, N^van --[1-oxo-3-(2-thienyl)-n-butyl]vancomycin] | 1 (≈ 0.624 µM) | 1 (≈ 0.624 µM) | 0.5 (≈ 0.312 µM) | 2 (≈ 1.25 µM) | 2 (≈ 1.25 µM) | 1 (≈ 0.624 µM) | 8 (≈ 5 µM) | 1 (≈ 0.624 µM) | 128 µg/mL (≈ 79.9 µM) | 4 (≈ 2.5 µM) | 2 (≈ 1.25 µM) | 2.3 mg/kg/2 | 3.38 mg/kg/2 | 3.05 mg/kg/2 | -- (-- = not active at 128 mcg/ml) |
| CC(C)C[C@H](C(=O)N[C@H]1C(=O)N[C@@H](CC(N)=O)C(=O)N[C@H]2C(=O)N[C@H]3C(=O)N[C@H](C(=O)N[C@H](C(=O)O)c4cc(O)cc(O)c4-c4cc3ccc4O)[C@H](O)c3ccc(c(Cl)c3)Oc3cc2cc(c3O[C@@H]2O[C@H](CO)[C@@H](O)[C@H](O)[C@H]2O[C@H]2C[C@](C)(NC(=O)CSc3ccccc3)[C@H](O)[C@H](C)O2)Oc2ccc(cc2Cl)[C@H]1O)N(C)C(=O)CSc1ccccc1 [Compound 12, N^van,N^leu-di-[1-oxo-2-(phenylthio)ethyl]vancomycin] | 16 (≈ 9.14 µM) | 32 (≈ 18.3 µM) | 8 (≈ 4.57 µM) | 32 (≈ 18.3 µM) | 64 (≈ 36.6 µM) | 8 (≈ 4.57 µM) | 128 (≈ 73.2 µM) | 16 (≈ 9.14 µM) | -- (-- = not active at 128 mcg/ml) | 64 (≈ 36.6 µM) | 32 (≈ 18.3 µM) | – | – | – | -- (-- = not active at 128 mcg/ml) |
| N^leu --(4-methoxybenzoyl)vancomycin [Compound 5] | 2 | 4 | 2 | 4 | 4 | 2 | 16 | 2 | -- (-- = not active at 128 mcg/ml) | 8 | 4 | – | – | – | -- (-- = not active at 128 mcg/ml) |
| CN[C@H](CC(C)C)C(=O)N[C@H]1C(=O)N[C@@H](CC(N)=O)C(=O)N[C@H]2C(=O)N[C@H]3C(=O)N[C@H](C(=O)N[C@H](C(=O)O)c4cc(O)cc(O)c4-c4cc3ccc4O)[C@H](O)c3ccc(c(Cl)c3)Oc3cc2cc(c3O[C@@H]2O[C@H](CO)[C@@H](O)[C@H](O)[C@H]2O[C@H]2C[C@](C)(NC(=O)c3ccc(OC)cc3)[C@H](O)[C@H](C)O2)Oc2ccc(cc2Cl)[C@H]1O [Compound 4, N^van --(4-methoxybenzoyl)vancomycin] | 2 (≈ 1.26 µM) | 2 (≈ 1.26 µM) | 0.5 (≈ 0.316 µM) | 2 (≈ 1.26 µM) | 2 (≈ 1.26 µM) | 1 (≈ 0.632 µM) | 8 (≈ 5.05 µM) | 2 (≈ 1.26 µM) | 128 µg/mL (≈ 80.8 µM) | 8 (≈ 5.05 µM) | 2 (≈ 1.26 µM) | – | – | – | 128 µg/mL (≈ 80.8 µM) |
| CCCCCCCCOc1ccc(C(=O)N[C@@]2(C)C[C@H](O[C@H]3[C@H](Oc4c5cc6cc4Oc4ccc(cc4Cl)[C@@H](O)[C@@H](NC(=O)[C@@H](CC(C)C)NC)C(=O)N[C@@H](CC(N)=O)C(=O)N[C@H]6C(=O)N[C@H]4C(=O)N[C@H](C(=O)N[C@H](C(=O)O)c6cc(O)cc(O)c6-c6cc4ccc6O)[C@H](O)c4ccc(c(Cl)c4)O5)O[C@H](CO)[C@@H](O)[C@@H]3O)O[C@@H](C)[C@H]2O)cc1 [Compound 1, N^van --[4-(n-octyloxy)benzoyl]vancomycin] | 1 (≈ 0.595 µM) | 2 (≈ 1.19 µM) | 2 (≈ 1.19 µM) | 1 (≈ 0.595 µM) | 4 (≈ 2.38 µM) | 2 (≈ 1.19 µM) | 16 (≈ 9.51 µM) | 1 (≈ 0.595 µM) | -- (-- = not active at 128 mcg/ml) | 1 (≈ 0.595 µM) | 0.5 (≈ 0.297 µM) | – | – | – | -- (-- = not active at 128 mcg/ml) |
| CCCCCCCCc1ccc(C(=O)N[C@@]2(C)C[C@H](O[C@H]3[C@H](Oc4c5cc6cc4Oc4ccc(cc4Cl)[C@@H](O)[C@@H](NC(=O)[C@@H](CC(C)C)NC)C(=O)N[C@@H](CC(N)=O)C(=O)N[C@H]6C(=O)N[C@H]4C(=O)N[C@H](C(=O)N[C@H](C(=O)O)c6cc(O)cc(O)c6-c6cc4ccc6O)[C@H](O)c4ccc(c(Cl)c4)O5)O[C@H](CO)[C@@H](O)[C@@H]3O)O[C@@H](C)[C@H]2O)cc1 [Compound 2, N^van --[4-(n-octyl)benzoyl]vancomycin] | 0.5 (≈ 0.3 µM) | 0.5 (≈ 0.3 µM) | 0.5 (≈ 0.3 µM) | 0.5 (≈ 0.3 µM) | 1 (≈ 0.6 µM) | 0.25 (≈ 0.15 µM) | 8 (≈ 4.8 µM) | 0.5 (≈ 0.3 µM) | -- (-- = not active at 128 mcg/ml) | 0.125 (≈ 0.075 µM) | 0.125 (≈ 0.075 µM) | 0.72 mg/kg/2 | 1.0 mg/kg/2 | 3.78 mg/kg/2 | -- (-- = not active at 128 mcg/ml) |
| CN[C@H](CC(C)C)C(=O)N[C@H]1C(=O)N[C@@H](CC(N)=O)C(=O)N[C@H]2C(=O)N[C@H]3C(=O)N[C@H](C(=O)N[C@H](C(=O)O)c4cc(O)cc(O)c4-c4cc3ccc4O)[C@H](O)c3ccc(c(Cl)c3)Oc3cc2cc(c3O[C@@H]2O[C@H](CO)[C@@H](O)[C@H](O)[C@H]2O[C@H]2C[C@](C)(N)[C@H](O)[C@H](C)O2)Oc2ccc(cc2Cl)[C@H]1O [vancomycin, Vancomycin, reference compound] | – | – | – | – | – | – | – | – | – | – | – | 0.90-0.93 mg/kg/2 | 0.99-1.1 mg/kg/2 | 1.8-3.7 mg/kg/2 | – |
| N^van -[1-oxo-2-(phenylthio)ethyl]vancomycin [Compound 10] | 1 | 1 | 0.5 | 1 | 2 | 0.5 | 4 | 1 | 32 µg/mL | 4 | 1 | 1.9 mg/kg/2 | 4.45 mg/kg/2 | 2.3 mg/kg/2 | 128 µg/mL |
| CN[C@H](CC(C)C)C(=O)N[C@H]1C(=O)N[C@@H](CC(N)=O)C(=O)N[C@H]2C(=O)N[C@H]3C(=O)N[C@H](C(=O)N[C@H](C(=O)O)c4cc(O)cc(O)c4-c4cc3ccc4O)[C@H](O)c3ccc(c(Cl)c3)Oc3cc2cc(c3O[C@@H]2O[C@H](CO)[C@@H](O)[C@H](O)[C@H]2O[C@H]2C[C@](C)(NC(=O)CC(C)Oc3ccccc3)[C@H](O)[C@H](C)O2)Oc2ccc(cc2Cl)[C@H]1O (stereo partly drawn) [Compound 6, N^van --(1-oxo-3-phenoxy-n-butyl)vancomycin] | 2 (≈ 1.24 µM) | 2 (≈ 1.24 µM) | 1 (≈ 0.621 µM) | 2 (≈ 1.24 µM) | 2 (≈ 1.24 µM) | 1 (≈ 0.621 µM) | 8 (≈ 4.96 µM) | 1 (≈ 0.621 µM) | -- (-- = not active at 128 mcg/ml) | 4 (≈ 2.48 µM) | 2 (≈ 1.24 µM) | 1.8 mg/kg/2 | 3.2 mg/kg/2 | 3.7 mg/kg/2 | -- (-- = not active at 128 mcg/ml) |
| N^leu -[1-oxo-2-(phenylthio)ethyl]vancomycin [Compound 11] | 4 | 8 | 2 | 4 | 8 | 4 | 16 | 4 | -- (-- = not active at 128 mcg/ml) | 16 | 8 | – | – | – | -- (-- = not active at 128 mcg/ml) |
| CCCCCCCCc1ccc(C(=O)N(C)C(CC(C)C)C(=O)NC2C(=O)NC(CC(N)=O)C(=O)NC3C(=O)NC4C(=O)NC(C(=O)NC(C(=O)O)c5cc(O)cc(O)c5-c5cc4ccc5O)C(O)c4ccc(c(Cl)c4)Oc4cc3cc(c4OC3OC(CO)C(O)C(O)C3OC3CC(C)(N)C(O)C(C)O3)Oc3ccc(cc3Cl)C2O)cc1 (stereo not drawn) [Compound 3, N^leu --[4-(n-octyl)benzoyl]vancomycin] | 2 (≈ 1.2 µM) | 2 (≈ 1.2 µM) | 1 (≈ 0.6 µM) | 2 (≈ 1.2 µM) | 2 (≈ 1.2 µM) | 1 (≈ 0.6 µM) | 16 (≈ 9.61 µM) | 2 (≈ 1.2 µM) | 64 µg/mL (≈ 38.4 µM) | 1 (≈ 0.6 µM) | 1 (≈ 0.6 µM) | – | – | – | 128 µg/mL (≈ 76.8 µM) |
